Reference: US11898114B2, “Reactions and methods for producing fuels” (Alliance for Sustainable Energy, LLC, priority 2020, dated 2024)
Like-named read-outs stand apart in the source and are kept apart here. Marks after values point to notes of the source that are not given here.

Key:
[1] = Water solubility (extraction into water, TOC and GC-MS-FID); assay type: physicochemical; conditions: component of B*POME1-6 extracted into water, 1:5 water:B*POME1-6
Experimental: The aqueous layer was then analyzed by total organic carbon (TOC) to determine the amount of the fuel product that was extracted into water. […] The concentration of each component was approximated from the FID response to estimate both the total amount of fuel product and relative solubility of individual components. […] Aqueous phases were diluted 1:2 with methanol. An Agilent 8890 GC/FID—5977B MS system was used for analysis. A volume of 1.0 μL was injected into a split/splitless inlet set to 275° C. and a split ratio of 1:100. Compounds were separated using an Rtx-50 column (50% phenyl polydimethylsiloxane, Restek) of dimensions 30 m×0.25 mm×0.25 μm with a helium carrier gas at a flow rate of 1.0 mL/min. A post column splitter was used to divert column effluent simultaneously to FID and MS detectors for qualitative and quantitative analysis. The GC oven temperature was held at 40° C. for 2 minutes, then ramped to 140° C. at 7° C./min, followed by a ramp to 290° C. at 12° C./min and held for 10 minutes. The MS transfer line and FID temperatures were set to 350° C. The MS detector was operated in continuous scan mode from m/z 29 to 300. The FID response was calibrated using a standard of 2,5-dimethylfuran prepared gravimetrically in acetone.

[2] = literature values (Fioroni, et al.; Lautenschütz, et al.; reported); cited from earlier work
[3] = literature values (Fioroni, et al.; Lautenschütz, et al.); cited from earlier work
[4] = literature values (Fioroni, et al.; Lautenschütz, et al.); cited from earlier work; remark: listed apart in the source
[5] = Boiling point range (TGA-based simulated distillation); assay type: physicochemical; conditions: neat
Experimental: (§1) Boiling point range of the target product was determined by a thermogravimetric analysis (TGA) based simulated distillation. Distillation temperatures were not determined via the standard method for diesel fuel, ASTM D86, due to the limited volume of sample available and gas chromatography based simulated distillation was not utilized given the relatively polar nature of POMEs. Analysis was conducted using a CAHN TG-131 TGA under flowing nitrogen with a ramp rate of 50° C./min from 25 to 550° C. The sample size was ca. 250 mg. The distillation parameters were selected to generate curves that closely matched ASTM D86 distillation values. The results of this method were validated using a standard fuel oil designed for validating ASTM D86 (Accustandard). Cloud point was measured using a Phase Technology Series 70X according to ASTM D5773; the method uncertainty is typically ±2.5° C. Flash point was measured according to ASTM D7094-17a with a method reproducibility stated as ±5.5° C. Indicated cetane number (ICN) was measured using an Advanced Fuel Ignition Delay Analyzer (AFIDA) instrument according to ASTM D8183-18 and where reproducibility is calculated as ±0.006407(ICN)^1.47. Higher heating value (HHV) and lower heating value (LHV) were determined according to ASTM D240-19 with a method reproducibility of ±0.4 MJ/kg.

[6] = Flash point (ASTM D7094-17a neat; D6450-16a blends); assay type: physicochemical; conditions: measured
Experimental: as §1, with “The results of this method were validated using a standard fuel oil designed for validating ASTM D86 (Accustandard).” left out
(§2) Higher heating value (HHV) and lower heating value (LHV) were determined according to ASTM D240-19 with a method reproducibility of ±0.4 MJ/kg. […] Lubricity was measured using ASTM D6079-18. […]

[7] = Lower heating value (ASTM D240-19); assay type: physicochemical; conditions: neat, measured
Experimental: as §1, with “The results of this method were validated using a standard fuel oil designed for validating ASTM D86 (Accustandard).” left out
as §2

**Q.** Which “Aqueous layer concentration of component” value [1] does the source give for `CCCCOCOCOCOCOCOC` [MB-POME5] here?
**A.** Its value is 0.1 g/L.

**Q.** Which “Aqueous layer concentration of component” value [1] does the source give for `CCCCOCOCOCOCOC` [MB-POME4] here?
**A.** Its value is 0.4 g/L.

**Q.** Which “Aqueous layer concentration of component” value [1] does the source give for `CCCCOCOCOCCCC` [BB-POME2] here?
**A.** Its value is 0.1 g/L.

**Q.** For `CCCCOCOCOCOC` [MB-POME3], which “Aqueous layer concentration of component” value [1] is on record?
**A.** Its value is 1.1 g/L.

**Q.** With `COCOC` [MM-POME1, methylal] as the compound, how does the LHV [2] read?
**A.** Its LHV is 23^# MJ/kg.

**Q.** Which “Aqueous layer concentration of component” value [1] does the source give for `CCCCOCOCOC` [MB-POME2] here?
**A.** Its value is 2.4 g/L.

**Q.** Which Flash point [3] does the source give for `CCCCOCOCCCC` [BB-POME1, dibutoxymethane] here?
**A.** The Flash point was 62^$ °C.

**Q.** And the Boiling point [4]?
**A.** The Boiling point was 187^$ °C.

**Q.** And the “Boiling point / boiling range” value [5]?
**A.** The value was 179 °C.

**Q.** And the “Aqueous layer concentration of component” value [1]?
**A.** The value was 0.2 g/L.

**Q.** What about the Flash point [6] of the same compound?
**A.** Its Flash point is 62 °C.

**Q.** For `CCO` [ethanol], which LHV [2] is on record?
**A.** Its LHV is 26.8 mJ/kg.

**Q.** For `COCOCOCOCOCOC` [MM-POME5], which Flash point [3] is on record?
**A.** Its Flash point is 115^# °C.

**Q.** What about the Boiling point [4] of the same compound?
**A.** The Boiling point was 242^# °C.

**Q.** What about the LHV [2] of the same compound?
**A.** Its LHV is 19^# MJ/kg.

**Q.** What about the “Aqueous layer concentration of component” value [1] of the same compound?
**A.** The value was 1.1 g/L.

**Q.** Which LHV [2] does the source give for `CCOCOCOCOCOCC` [EE-POME4] here?
**A.** The LHV was 23^# MJ/kg.

**Q.** Which LHV [2] does the source give for `CCOCOCC` [EE-POME1] here?
**A.** The LHV was 29^# MJ/kg.

**Q.** Which Flash point [3] does the source give for `COCOCOCOC` [MM-POME3] here?
**A.** The Flash point was 54^# °C.

**Q.** And the Boiling point [4]?
**A.** Its Boiling point is 156^# °C.

**Q.** Which “Aqueous layer concentration of component” value [1] does the source give for `COCOCOC` [MM-POME2] here?
**A.** The value was 0.6 g/L.

**Q.** Which Flash point [3] does the source give for `COCOCOCOCOC` [MM-POME4] here?
**A.** The Flash point was 88^# °C.

**Q.** What about the Boiling point [4] of the same compound?
**A.** The Boiling point was 202^# °C.

**Q.** What about the “Aqueous layer concentration of component” value [1] of the same compound?
**A.** The value was 1.5 g/L.

**Q.** Which LHV [2] does the source give for `CCOCOCOCOCC` [EE-POME3] here?
**A.** The LHV was 24^# MJ/kg.

**Q.** And the “Boiling point / boiling range” value [5]?
**A.** The value was 185 °C.

**Q.** And the LHV [7]?
**A.** Its LHV is 24 mJ/kg.

**Q.** And the Flash point [6]?
**A.** Its Flash point is 68 °C.

**Q.** With `COCOCOCOCOCOCOC` [MM-POME6] as the compound, how does the “Aqueous layer concentration of component” value [1] read?
**A.** The value was 0.5 g/L.

**Q.** Which LHV [2] does the source give for `CCOCOCOCC` [EE-POME2] here?
**A.** Its LHV is 26^# MJ/kg.
